Values quoted from earlier work as cited in patent US20220288013A1, “1,8-CINEOL COATED IMPLANTS” (THE BOARD OF TRUSTEES OF THE LELAND STANFORD JUNIOR …, priority 2019, published 2022).

Tests used:
Wnt11 = details: HNSCC cell lines
WNT/β-catenin pathway = details: permanent HNSCC cell lines
[1] = tested on: head and neck squamous cell carcinoma (HNSCC) cell lines; details: exposure of different cell lines; permanent HNSCC cell lines

## CC12CCC(CC1)C(C)(C)O2 [1,8-cineol, 1,3,3-Trimethyl-2-oxabicyclo[2.2.2]octane]
Wnt11
  expression of Wnt11: reduces expression of Wnt11
WNT/β-catenin pathway
  activity of the WNT/β-catenin pathway (canonical pathway), especially of Wnt11: decrease the activity of the WNT/β-catenin pathway
[1]
  proliferation: inhibit proliferation
